Entries after “also recorded” stand apart in the source; their conditions may differ.
Legend:
[1] = test system: CSCs in cell lines derived from 8 different cancer types; details: cell lines from 8 cancer types incl. MCF7, T47D, MDA-MB-231, MCF10.DCIS.COM; cited from earlier work
MDA-MB-231 metastasis = assay: Metastasis assay, MDA-MB-231 cells in the CAM assay (qPCR for Human Alu sequences in lower CAM); assay type: in vivo
Method: MDA-MB-231 cells and the CAM assay in chicken eggs were used to quantitatively measure spontaneous tumor mestastasis. An inoculum of 1×10^6 MDA-MB-231 cells was added onto the CAM of each egg (on day E9) and then eggs were then randomized into groups. On day E10, tumors were detectable and they were then treated daily for 8 days with vehicle alone (1% DMSO in PBS) or the four mitochondrial inhibitors. After 8 days of drug administration, the lower CAM was collected to evaluate the number of metastatic cells, as analyzed by qPCR with specific primers for Human Alu sequences. […] The same procedure may be used to evaluate the anti-metastasis and anti-recurrence effects of other mitochondrial inhibitors.
(§1) a) Preparation of Chicken Embryos. Fertilized White Leghorn eggs were incubated at 37.5° C. with 50% relative humidity for 9 days. At that moment (E9), the chorioallantoic membrane (CAM) was dropped down by drilling a small hole through the eggshell into the air sac, and a 1 cm^2 window was cut in the eggshell above the CAM (19-23).
b) Amplification and Grafting of Tumor Cells. The MDA-MB-231 tumor cell line was cultivated in DMEM medium supplemented with 10% FBS and 1% penicillin/streptomycin. On day E9, cells were detached with trypsin, washed with complete medium and suspended in graft medium. An inoculum of 1×10^6 cells was added onto the CAM of each egg (E9) and then eggs were randomized into groups (19-23).
d) Metastasis Assays. On day E18, a 1 cm^2 portion of the lower CAM was collected to evaluate the number of metastatic cells in 8 samples per group (n=8). Genomic DNA was extracted from the CAM (commercial kit) and analyzed by qPCR with specific primers for Human Alu sequences. Calculation of Cq for each sample, mean Cq and relative amounts of metastases for each group are directly managed by the Bio-Rad® CFX Maestro software. A one-way ANOVA analysis with post-tests was performed on all the data (19-23).

chick embryo = assay: Embryo tolerability assay (chick embryo toxicity); assay type: in vivo; details: for Alive / Dead: number of embryos
Method: a) Preparation of Chicken Embryos. […] At that moment (E9), the chorioallantoic membrane (CAM) was dropped down by drilling a small hole through the eggshell into the air sac, and a 1 cm^2 window was cut in the eggshell above the CAM (19-23).
e) Embryo Tolerability Assay: Before each administration, the treatment tolerability was evaluated by scoring the number of dead embryos.

MCF7 cells = details: cited from earlier work
MDA-MB-231 tumor growth = assay: Tumor growth assay, MDA-MB-231 cells on the chorio-allantoic membrane (CAM) in chicken eggs; assay type: in vivo, human; details: treated daily for 8 days
Method: To experimentally evaluate their functional effects in vivo, the inventors used MDA-MB-231 cells and the well-established chorio-allantoic membrane (CAM) assay in chicken eggs, to quantitatively measure tumor growth and metastasis. An inoculum of 1×10^6 MDA-MB-231 cells was added onto the CAM of each egg (day E9) and then eggs were randomized into groups. On day E10, tumors were detectable and they were then treated daily for 8 days with vehicle alone (1% DMSO in PBS) or the three Mitoriboscin compounds. In parallel, the inventors also evaluated the activity of another mitochondrial inhibitor, namely butene-1,4-bis-triphenyl-phosphonium (Bis-TPP), which was identified as an inhibitor of 3D-mammosphere formation in MCF7 cells, with an IC-50 of less than 0.5 μM.
After 8 days of drug administration (on day E18), all tumors were weighed, and the lower CAM was collected to evaluate the number of metastatic cells, as analyzed by qPCR with specific primers for Human Alu sequences.
as §1
b) Amplification and Grafting of Tumor Cells. […]

MDA-MB-231 cells = details: cited from earlier work

SMILES: CC[C@H]1OC(=O)[C@H](C)[C@@H](O[C@H]2C[C@@](C)(OC)[C@@H](O)[C@H](C)O2)[C@H](C)[C@@H](O[C@@H]2O[C@H](C)C[C@H](N(C)C)[C@H]2O)[C@](C)(O)C[C@@H](C)CN(C)[C@H](C)[C@@H](O)[C@]1(C)O [Azithromycin]
- inhibition of anchorage-independent propagation of CSCs [1]: effectively inhibit

SMILES: C(=CC[P+](c1ccccc1)(c1ccccc1)c1ccccc1)C[P+](c1ccccc1)(c1ccccc1)c1ccccc1 [Bis-TPP, butene-1,4-bis-triphenyl-phosphonium]
- effect on MDA-MB-231 cancer metastasis (MDA-MB-231 metastasis; CAM assay in chicken eggs, treated daily for 8 days): functional prevention of cancer metastasis; also recorded: significantly prevented metastasis
- % Alive (chick embryo; 0.5 mM): 58.33%
- % Dead (chick embryo; 0.5 mM): 41.67%
- Alive (chick embryo; 0.5 mM): 7
- Dead (chick embryo; 0.5 mM): 5
- IC50 (MCF7 cells; read-out: IC-50, inhibition of 3D-mammosphere formation): < 500 nM

SMILES: O[C@@H]1[C@H](NCc2ccccc2)CCC[C@H]1Oc1ccccc1Oc1ccc(Cl)cc1 [23/G4]
- effect on MDA-MB-231 tumor growth (MDA-MB-231 tumor growth): minor effects
- effectiveness in CAM assay (MDA-MB-231 metastasis; concentration of 0.5 mM): minimally effective
- inhibition of metastasis (MDA-MB-231 metastasis; higher concentrations 0.75 mM, 1 mM, 2 mM, CAM assay): 70-75%
- % Alive (chick embryo; 0.5 mM): 70%
- % Dead (chick embryo; 0.5 mM): 30%
- Alive (chick embryo; 0.5 mM): 7
- Dead (chick embryo; 0.5 mM): 3
- % Alive (chick embryo; 0.75 mM): 71.43%
- % Dead (chick embryo; 0.75 mM): 28.57%
- Alive (chick embryo; 0.75 mM): 10
- Dead (chick embryo; 0.75 mM): 4
- % Alive (chick embryo; 1 mM): 80%
- % Dead (chick embryo; 1 mM): 20%
- Alive (chick embryo; 1 mM): 12
- Dead (chick embryo; 1 mM): 3
- % Alive (chick embryo; 2 mM): 66.67%
- % Dead (chick embryo; 2 mM): 33.33%
- Alive (chick embryo; 2 mM): 10
- Dead (chick embryo; 2 mM): 5
- inhibition of 3D-mammosphere formation, active concentration range (MCF7 cells): low micro-molar range
- blocking of cell migration, active concentration range (MDA-MB-231 cells): low micro-molar range

From patent US12728104B2, “Therapeutic methods for preventing tumor metastasis and tumor recurrence” (LUNELLA BIOTECH, INC., priority 2020, dated 2026)
